From US8192962B2, “Processes for detecting toxic substances” (Daikin Industries, Ltd., priority 2001, dated 2012)

Tested on: Stress protein genes
Assay: DNA chip mRNA expression in yeast, stress protein genes (Table 6)
Assay type: cell-based, Saccharomyces cerevisiae S288C
Procedure, shortened: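 Cells were grown at 25° C. in YPD, treated at logarithmic phase for 2 h with a chemical at a concentration inhibiting growth but not causing death, and compared with untreated cultures. Labeled cDNA was hybridized to a DNA chip carrying all yeast genes, and the expression ratio was taken from scanner fluorescence.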

SMILES: [Cl][Pb][Cl] [(4), PbCl2]
- The level of expressed mRNA in the presence of chemical substance/The level of expressed mRNA in the absence of chemical substance (yeast gene YAL005C): 0.9
- The level of expressed mRNA in the presence of chemical substance/The level of expressed mRNA in the absence of chemical substance (yeast gene YAL015C): 1.9
- The level of expressed mRNA in the presence of chemical substance/The level of expressed mRNA in the absence of chemical substance (yeast gene YBL075C): 1.6
- The level of expressed mRNA in the presence of chemical substance/The level of expressed mRNA in the absence of chemical substance (yeast gene YBL093C): 1.4
- The level of expressed mRNA in the presence of chemical substance/The level of expressed mRNA in the absence of chemical substance (yeast gene YBR044C): 1.9
- The level of expressed mRNA in the presence of chemical substance/The level of expressed mRNA in the absence of chemical substance (yeast gene YBR054W): 1.7
- The level of expressed mRNA in the presence of chemical substance/The level of expressed mRNA in the absence of chemical substance (yeast gene YBR067C): 0.9
- The level of expressed mRNA in the presence of chemical substance/The level of expressed mRNA in the absence of chemical substance (yeast gene YBR072W): 10.5
- The level of expressed mRNA in the presence of chemical substance/The level of expressed mRNA in the absence of chemical substance (yeast gene YBR126C): 1.2
- The level of expressed mRNA in the presence of chemical substance/The level of expressed mRNA in the absence of chemical substance (yeast gene YBR169C): 1.9
- The level of expressed mRNA in the presence of chemical substance/The level of expressed mRNA in the absence of chemical substance (yeast gene YCL035C): 1.7
- The level of expressed mRNA in the presence of chemical substance/The level of expressed mRNA in the absence of chemical substance (yeast gene YCR021C): 8.6
- The level of expressed mRNA in the presence of chemical substance/The level of expressed mRNA in the absence of chemical substance (yeast gene YCR083W): 1.8
- The level of expressed mRNA in the presence of chemical substance/The level of expressed mRNA in the absence of chemical substance (yeast gene YDL022W): 1.5
- The level of expressed mRNA in the presence of chemical substance/The level of expressed mRNA in the absence of chemical substance (yeast gene YDL025C): 1.5
- The level of expressed mRNA in the presence of chemical substance/The level of expressed mRNA in the absence of chemical substance (yeast gene YDR033W): 1.5
- The level of expressed mRNA in the presence of chemical substance/The level of expressed mRNA in the absence of chemical substance (yeast gene YDR077W): 2.1
- The level of expressed mRNA in the presence of chemical substance/The level of expressed mRNA in the absence of chemical substance (yeast gene YDR098C): 0.8
- The level of expressed mRNA in the presence of chemical substance/The level of expressed mRNA in the absence of chemical substance (yeast gene YDR155C): 1.8
- The level of expressed mRNA in the presence of chemical substance/The level of expressed mRNA in the absence of chemical substance (yeast gene YDR258C): 1.4
- The level of expressed mRNA in the presence of chemical substance/The level of expressed mRNA in the absence of chemical substance (yeast gene YDR293C): 1.4
- The level of expressed mRNA in the presence of chemical substance/The level of expressed mRNA in the absence of chemical substance (yeast gene YDR436W): 1.4
- The level of expressed mRNA in the presence of chemical substance/The level of expressed mRNA in the absence of chemical substance (yeast gene YDR513W): 2.6
- The level of expressed mRNA in the presence of chemical substance/The level of expressed mRNA in the absence of chemical substance (yeast gene YDR519W): 1.6
- The level of expressed mRNA in the presence of chemical substance/The level of expressed mRNA in the absence of chemical substance (yeast gene YEL030W): 1.1
- The level of expressed mRNA in the presence of chemical substance/The level of expressed mRNA in the absence of chemical substance (yeast gene YEL039C): 5.1
- The level of expressed mRNA in the presence of chemical substance/The level of expressed mRNA in the absence of chemical substance (yeast gene YER042W): 1.0
- The level of expressed mRNA in the presence of chemical substance/The level of expressed mRNA in the absence of chemical substance (yeast gene YER057C): 1.8
- The level of expressed mRNA in the presence of chemical substance/The level of expressed mRNA in the absence of chemical substance (yeast gene YER103W): 2.1
- The level of expressed mRNA in the presence of chemical substance/The level of expressed mRNA in the absence of chemical substance (yeast gene YER125W): 0.9
- The level of expressed mRNA in the presence of chemical substance/The level of expressed mRNA in the absence of chemical substance (yeast gene YFL014W): 11.0
- The level of expressed mRNA in the presence of chemical substance/The level of expressed mRNA in the absence of chemical substance (yeast gene YFL016C): 0.9
- The level of expressed mRNA in the presence of chemical substance/The level of expressed mRNA in the absence of chemical substance (yeast gene YFL020C): 1.2
- The level of expressed mRNA in the presence of chemical substance/The level of expressed mRNA in the absence of chemical substance (yeast gene YFR052W): 1.5
- The level of expressed mRNA in the presence of chemical substance/The level of expressed mRNA in the absence of chemical substance (yeast gene YGL073W): 1.0
- The level of expressed mRNA in the presence of chemical substance/The level of expressed mRNA in the absence of chemical substance (yeast gene YGL115W): 2.0
- The level of expressed mRNA in the presence of chemical substance/The level of expressed mRNA in the absence of chemical substance (yeast gene YGL181W): 1.1
- The level of expressed mRNA in the presence of chemical substance/The level of expressed mRNA in the absence of chemical substance (yeast gene YGR088W): 2.4
- The level of expressed mRNA in the presence of chemical substance/The level of expressed mRNA in the absence of chemical substance (yeast gene YHL028W): 0.5
- The level of expressed mRNA in the presence of chemical substance/The level of expressed mRNA in the absence of chemical substance (yeast gene YHL046C): 1.3
- The level of expressed mRNA in the presence of chemical substance/The level of expressed mRNA in the absence of chemical substance (yeast gene YHR030C): 2.9
- The level of expressed mRNA in the presence of chemical substance/The level of expressed mRNA in the absence of chemical substance (yeast gene YHR057C): 0.9
- The level of expressed mRNA in the presence of chemical substance/The level of expressed mRNA in the absence of chemical substance (yeast gene YHR104W): 1.9
- The level of expressed mRNA in the presence of chemical substance/The level of expressed mRNA in the absence of chemical substance (yeast gene YIL011W): 0.6
- The level of expressed mRNA in the presence of chemical substance/The level of expressed mRNA in the absence of chemical substance (yeast gene YIL033C): 1.3
- The level of expressed mRNA in the presence of chemical substance/The level of expressed mRNA in the absence of chemical substance (yeast gene YIR037W): 2.3
- The level of expressed mRNA in the presence of chemical substance/The level of expressed mRNA in the absence of chemical substance (yeast gene YIR038C): 2.0
- The level of expressed mRNA in the presence of chemical substance/The level of expressed mRNA in the absence of chemical substance (yeast gene YJL128C): 0.8
- The level of expressed mRNA in the presence of chemical substance/The level of expressed mRNA in the absence of chemical substance (yeast gene YJL158C): 1.5
- The level of expressed mRNA in the presence of chemical substance/The level of expressed mRNA in the absence of chemical substance (yeast gene YJL159W): 1.1
- The level of expressed mRNA in the presence of chemical substance/The level of expressed mRNA in the absence of chemical substance (yeast gene YJL165C): 1.6
- The level of expressed mRNA in the presence of chemical substance/The level of expressed mRNA in the absence of chemical substance (yeast gene YJR090C): 0.8
- The level of expressed mRNA in the presence of chemical substance/The level of expressed mRNA in the absence of chemical substance (yeast gene YKL161C): 2.2
- The level of expressed mRNA in the presence of chemical substance/The level of expressed mRNA in the absence of chemical substance (yeast gene YKL163W): 1.9
- The level of expressed mRNA in the presence of chemical substance/The level of expressed mRNA in the absence of chemical substance (yeast gene YKL164C): 0.9
- The level of expressed mRNA in the presence of chemical substance/The level of expressed mRNA in the absence of chemical substance (yeast gene YKL210W): 0.7
- The level of expressed mRNA in the presence of chemical substance/The level of expressed mRNA in the absence of chemical substance (yeast gene YKR053C): 1.2
- The level of expressed mRNA in the presence of chemical substance/The level of expressed mRNA in the absence of chemical substance (yeast gene YLL024C): 0.8
- The level of expressed mRNA in the presence of chemical substance/The level of expressed mRNA in the absence of chemical substance (yeast gene YLL026W): 1.7
- The level of expressed mRNA in the presence of chemical substance/The level of expressed mRNA in the absence of chemical substance (yeast gene YLL039C): 1.2
- The level of expressed mRNA in the presence of chemical substance/The level of expressed mRNA in the absence of chemical substance (yeast gene YLL060C): 2.6
- The level of expressed mRNA in the presence of chemical substance/The level of expressed mRNA in the absence of chemical substance (yeast gene YLR006C): 6.2
- The level of expressed mRNA in the presence of chemical substance/The level of expressed mRNA in the absence of chemical substance (yeast gene YLR109W): 0.9
- The level of expressed mRNA in the presence of chemical substance/The level of expressed mRNA in the absence of chemical substance (yeast gene YLR259C): 1.6
- The level of expressed mRNA in the presence of chemical substance/The level of expressed mRNA in the absence of chemical substance (yeast gene YML007W): 1.3
- The level of expressed mRNA in the presence of chemical substance/The level of expressed mRNA in the absence of chemical substance (yeast gene YML070W): 1.9
- The level of expressed mRNA in the presence of chemical substance/The level of expressed mRNA in the absence of chemical substance (yeast gene YMR021C): 1.1
- The level of expressed mRNA in the presence of chemical substance/The level of expressed mRNA in the absence of chemical substance (yeast gene YMR173W): 0.9
- The level of expressed mRNA in the presence of chemical substance/The level of expressed mRNA in the absence of chemical substance (yeast gene YMR186W): 0.9
- The level of expressed mRNA in the presence of chemical substance/The level of expressed mRNA in the absence of chemical substance (yeast gene YNL064C): 1.1
- The level of expressed mRNA in the presence of chemical substance/The level of expressed mRNA in the absence of chemical substance (yeast gene YNL160W): 2.0
- The level of expressed mRNA in the presence of chemical substance/The level of expressed mRNA in the absence of chemical substance (yeast gene YNL241C): 1.0
- The level of expressed mRNA in the presence of chemical substance/The level of expressed mRNA in the absence of chemical substance (yeast gene YNR076W): 1.0
- The level of expressed mRNA in the presence of chemical substance/The level of expressed mRNA in the absence of chemical substance (yeast gene YOL064C): 0.6
- The level of expressed mRNA in the presence of chemical substance/The level of expressed mRNA in the absence of chemical substance (yeast gene YOL161C): 1.4
- The level of expressed mRNA in the presence of chemical substance/The level of expressed mRNA in the absence of chemical substance (yeast gene YOR008C): 1.1
- The level of expressed mRNA in the presence of chemical substance/The level of expressed mRNA in the absence of chemical substance (yeast gene YOR009W): 0.7
- The level of expressed mRNA in the presence of chemical substance/The level of expressed mRNA in the absence of chemical substance (yeast gene YOR010C): 0.6
- The level of expressed mRNA in the presence of chemical substance/The level of expressed mRNA in the absence of chemical substance (yeast gene YOR027W): 0.8
- The level of expressed mRNA in the presence of chemical substance/The level of expressed mRNA in the absence of chemical substance (yeast gene YOR208W): 2.9
- The level of expressed mRNA in the presence of chemical substance/The level of expressed mRNA in the absence of chemical substance (yeast gene YPL059W): 1.3
- The level of expressed mRNA in the presence of chemical substance/The level of expressed mRNA in the absence of chemical substance (yeast gene YPL106C): 1.1
- The level of expressed mRNA in the presence of chemical substance/The level of expressed mRNA in the absence of chemical substance (yeast gene YPL140C): 1.0
- The level of expressed mRNA in the presence of chemical substance/The level of expressed mRNA in the absence of chemical substance (yeast gene YPL194W): 1.1
- The level of expressed mRNA in the presence of chemical substance/The level of expressed mRNA in the absence of chemical substance (yeast gene YPL223C): 5.1
- The level of expressed mRNA in the presence of chemical substance/The level of expressed mRNA in the absence of chemical substance (yeast gene YPL240C): 0.9
- The level of expressed mRNA in the presence of chemical substance/The level of expressed mRNA in the absence of chemical substance (yeast gene YPR005C): 3.8
- The level of expressed mRNA in the presence of chemical substance/The level of expressed mRNA in the absence of chemical substance (yeast gene YPR026W): 1.3
